Several values for one entry are separate records, joined by “and”; a condition that tells them apart may be missing. Equal values may be shown once.
What was measured:
[1] = system: five sixth nephrectomized rats; experiment: Subtotal nephrectomy induced hypertension: blood pressure; type: in vivo, Sprague Dawley rats; settings: four weeks
Method: Fimasartan 10 mg/kg and Sacubitril 50 mg/kg and combination were administered for 4 weeks. Prior to initiation, Sprague Dawley rats were randomized based on their systolic blood pressure after one week of recovery. These experimental groups were treated daily by gavage for four weeks and their weekly blood pressure was measured. Rats treated with vehicle served as controls and sham operated animals treated with vehicle served as sham controls. […] Experimental model of acute cardiac failure is characterized by several features that closely mimic the pathophysiological consequences of CHF in patients, includes the characteristic neurohumoral activation, decrease in renal perfusion, sodium retention and cardiac hypertrophy (J Biomed Biotechnol. 2011; 2011: 729497). […] Five sixth nephrectomy represent a model of hypertension in rats and in clinic it has been observed that loss of renal mass is associated with increased hypertension (APMIS. 1992 December; 100(12):1097-105; International Journal of Urology (2015) 22, 797-804).

[2] = system: rat model of infrarenal abdominal aorta-vena cava fistula (AV fistula); experiment: AV fistula model: mean arterial blood pressure; type: in vivo, Sprague Dawley rats; settings: for % change in meal arterial pressure / Mean arterial pressure: PO; for % change in meal arterial pressure: 7 days, against vehicle control; for Mean arterial pressure: after 7 days of treatment, AV fistula rats; for reduction of mean arterial blood pressure: after treatment period, in comparison to vehicle control, given as reduction
Text: (§1) Sprague Dawley rats will be used in the study at the age to 6-8 weeks. A midline abdominal incision will be made under anesthesia to expose the vena cava and abdominal aorta distal to the origin of the renal arteries. A longitudinal incision will be performed in the outer wall of the vena cava. The common wall between the aorta and vena cava will be grabbed through the incision and a fistula (1.0-1.2 mm outer diameter) will be created between the vena cava and aorta. The opening of the outer wall of the vena cava will be closed with a continuous suture. After the surgical procedure, the animals will be allowed to recover with daily monitoring of urine output and sodium excretion in metabolic cages. A matched group of sham-operated rats will serve as controls. After a week of surgical operation, rats will be divided into subgroups according to their daily absolute rate of sodium excretion. Fimasartan or its pharmaceutically acceptable salt, or Sacubitril or its pharmaceutically acceptable salt or their combination will be taken as a low dose, middle dose, and high dose group. Animals will be treated daily for four weeks with weekly measurement of blood pressure. Additionally, sodium excretion and creatinine clearance will be measured twice weekly. In the rat model of infrarenal abdominal aorta-vena cava fistula (AV fistula), workload on heart increases by sustained volume overload, this reduces sodium excretion and leads to cardiac hypertrophy. Rats receiving fimasartan (5, 10 and 30 mg/kg/day), sacubitril (25, 50 and 75 mg/kg/day) and combination (fimasartan 10 mg/kg and sacubitril 50 mg/kg) were evaluated in AV fistula model. Sprague Dawley rats in these experimental groups were treated daily by gavage for seven days and urine volume and sodium excretion were daily measured. Rats treated with vehicle served as controls. Rats with sham operation or animals with arterio-venous fistula treated with vehicle served as controls. Animals were randomized based on 24 h urinary sodium excretion. Animals with <100 μEq/24 h urinary sodium excretion were selected in study except sham control animals. Treatment was initiated for 7 days with daily measurement of sodium excretion and results were expressed as cumulative urinary sodium excretion. […] These observations indicate that combination of fimasartan and sacubitril reduce volume overload associated with AV Fistula. After completion of the treatment period, mean arterial blood pressure was evaluated from animals from different experimental groups.

[3] = system: rat model of infrarenal abdominal aorta-vena cava fistula (AV fistula); experiment: AV fistula model: cumulative urinary sodium excretion; type: in vivo, Sprague Dawley rats; settings: PO; for Urinary sodium (cumulative sodium excretion): 7 days of treatment, AV fistula rats; for % change in urinary sodium: 7 days, against vehicle control
Text: as §1, with “Rats receiving fimasartan (5, 10 and 30 mg/kg/day), sacubitril (25, 50 and 75 mg/kg/day) and combination (fimasartan 10 mg/kg and sacubitril 50 mg/kg) were evaluated in AV fistula model.” left out

NEP = NEP (Homo sapiens, UniProt P08473); settings: in vivo; cited from earlier work
NEP, sequence (P08473 whole entry): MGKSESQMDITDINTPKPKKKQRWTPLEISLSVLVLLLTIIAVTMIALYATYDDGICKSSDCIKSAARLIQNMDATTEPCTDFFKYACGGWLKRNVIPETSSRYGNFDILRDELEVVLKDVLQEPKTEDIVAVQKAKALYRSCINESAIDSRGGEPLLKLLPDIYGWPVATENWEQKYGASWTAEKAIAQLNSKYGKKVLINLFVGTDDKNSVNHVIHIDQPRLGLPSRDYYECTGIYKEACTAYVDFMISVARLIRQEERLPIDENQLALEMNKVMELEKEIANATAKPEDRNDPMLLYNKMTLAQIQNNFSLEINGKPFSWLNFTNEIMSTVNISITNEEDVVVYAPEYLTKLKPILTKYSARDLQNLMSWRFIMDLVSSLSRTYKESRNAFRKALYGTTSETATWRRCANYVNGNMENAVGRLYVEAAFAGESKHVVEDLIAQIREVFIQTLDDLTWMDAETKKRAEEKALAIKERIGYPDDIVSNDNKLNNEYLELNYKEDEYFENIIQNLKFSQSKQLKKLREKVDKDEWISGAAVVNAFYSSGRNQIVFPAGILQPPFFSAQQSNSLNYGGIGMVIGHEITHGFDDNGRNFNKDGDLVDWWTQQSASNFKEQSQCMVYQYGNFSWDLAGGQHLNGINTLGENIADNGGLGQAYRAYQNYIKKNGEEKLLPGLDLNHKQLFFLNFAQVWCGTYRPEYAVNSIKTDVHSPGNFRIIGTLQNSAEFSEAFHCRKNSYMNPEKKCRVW

CCCCc1nc(C)c(CC(=S)N(C)C)c(=O)n1Cc1ccc(-c2ccccc2-c2nnn[nH]2)cc1 [Fimasartan, 2-n-butyl-5-dimethylaminothiocarbonyl-methyl-6-methyl-3-[[2′-(1H-tetrazol-5-yl)biphenyl-4-yl]methyl]pyrimidin-4(3H)-one]
reduction in blood pressure against vehicle control ([1]; Fimasartan 10 mg/kg daily by gavage): 15.9%
% change in meal arterial pressure ([2]; fimasartan 10 mg/kg): −5.9 ± 1.9 %
Mean arterial pressure ([2]; fimasartan 10 mg/kg): 111.7 ± 2.3 mmHg
reduction of mean arterial blood pressure ([2]; fimasartan alone (FIG. 2)): 5.9±1.9%
Urinary sodium (cumulative sodium excretion) ([3]; fimasartan 5 mg/kg): 4784.8 ± 497.5 μeq/24 h
% change in urinary sodium ([3]; fimasartan 5 mg/kg): 31.1 ± 13.6 %
% change in urinary sodium ([3]; fimasartan 5 mg/kg, listed as fimasartan): 31.1±13.6%
Urinary sodium (cumulative sodium excretion) ([3]; fimasartan 10 mg/kg): 5179.7 ± 451.2 μeq/24 h and 5179.7 ± 443.7 μeq/24 h
% change in urinary sodium ([3]; fimasartan 10 mg/kg): 41.9 ± 12.2 % and 51.2 ± 11.9 %
% change in urinary sodium ([3]; fimasartan 10 mg/kg, listed as fimasartan): 41.9±12.2%
Urinary sodium (cumulative sodium excretion) ([3]; fimasartan 20 mg/kg): 6664.7 ± 448.2 μeq/24 h
% change in urinary sodium ([3]; fimasartan 20 mg/kg): 82.6 ± 13.1 %
% change in urinary sodium ([3]; fimasartan 20 mg/kg, listed as fimasartan): 82.6±13.1%

CCOC(=O)[C@H](C)C[C@@H](Cc1ccc(-c2ccccc2)cc1)NC(=O)CCC(=O)O [Sacubitril, 4-[[(2S,4R)-5-ethoxy-4-methyl-5-oxo-1-(4-phenylphenyl)pentan-2-yl]amino]-4-oxobutanoic acid]
reduction in blood pressure against vehicle control ([1]; Sacubitril 50 mg/kg daily by gavage): 18.7%
% change in meal arterial pressure ([2]; sacubitril 50 mg/kg): −8 ± 1.9 %
Mean arterial pressure ([2]; sacubitril 50 mg/kg): 109.2 ± 2.2 mmHg
reduction of mean arterial blood pressure ([2]; sacubitril alone (FIG. 2)): 8.0±1.9%
Urinary sodium (cumulative sodium excretion) ([3]; sacubitril 25 mg/kg): 5185.7 ± 443.7 μeq/24 h
% change in urinary sodium ([3]; sacubitril 25 mg/kg): 41.9 ± 12.2 %
% change in urinary sodium ([3]; sacubitril 25 mg/kg, listed as sacubitril): 41.9±12.1%
Urinary sodium (cumulative sodium excretion) ([3]; sacubitril 50 mg/kg): 6678.7 ± 451.7 μeq/24 h
% change in urinary sodium ([3]; sacubitril 50 mg/kg): 82.6 ± 13.5 %
% change in urinary sodium ([3]; sacubitril 50 mg/kg, listed as sacubitril): 82.6±13.5%
Urinary sodium (cumulative sodium excretion) ([3]; sacubitril 75 mg/kg): 9129.7 ± 449.7 μeq/24 h
% change in urinary sodium ([3]; sacubitril 75 mg/kg): 150.1 ± 10.4 %
% change in urinary sodium ([3]; sacubitril 75 mg/kg, listed as sacubitril): 150.1±10.4%

COCCOC[C@H](CC1(C(=O)N[C@H]2CC[C@@H](C(=O)O)CC2)CCCC1)C(=O)O [candoxatrilat]
natriuretic and cyclic GMP responses to a low-dose ANP infusion (NEP): potentiates
